Measured values taken from patent publication US20260115190A1, “DISPERSIONS OF ETRUMADENANT” (Arcus Biosciences, Inc., priority 2022, published 2026).

Legend:
[1] = target: P-gp (Homo sapiens, UniProt P08183); details: 200 mg QD itraconazole for 5 days; reported in the literature; cited from earlier work
[2] = Drug-drug interaction study with itraconazole; type: in vivo, humans; details: with coadministration of itraconazole
Method: An open-label, fixed-sequence, 2-period drug-drug interaction (DDI) study was designed to evaluate the effect of multiple doses of a strong inhibitor of CYP3A4 and P-gp on the single-dose PK of etrumadenant in humans. Etrumadenant was supplied as 25 mg capsules. Itraconazole was used as the representative strong inhibitor of CYP3A4 and P-gp. It was supplied as 10 mg/mL oral solution, Sporanox® by Janssen Pharmaceuticals (or generic equivalent). Twenty (20) healthy, adult male and female (of non-childbearing potential) participants were enrolled. Screening of participants occurred within 28 days prior to the first dosing.
On Day 1 of Period 1, a single 150 mg dose of etrumadenant was orally administered under fasting conditions (i.e., at least 10 hours of fasting prior to dosing and at least 4 hours postdose). PK sampling for etrumadenant and its metabolites was taken predose and up to 120 hours postdose. There was a washout of 5 days between the etrumadenant dose in Period 1 and the first itraconazole dose in Period 2.
In Period 2, 200 mg itraconazole was orally administered twice a day (BID) on Day 1 and once a day (QD) for 9 consecutive days (on Days 2 through 10) with a single 150 mg dose of etrumadenant orally administered 1 hour after itraconazole dosing on Day 6. Itraconazole was administered under fasting conditions. On Day 6, participants fasted for at least 10 hours prior to and at least 4 hours post etrumadenant dosing. PK sampling for etrumadenant and its metabolites was taken predose and up to 120 hours after etrumadenant dosing. PK sampling for itraconazole and 1-hydroxy-itraconazole was collected on Days 5, 6, 7, 9, and 11.
Itraconazole was administered twice on the first day of Period 2 as a loading dose to accelerate CYP3A inhibition and the inhibition was then maintained by administering itraconazole 200 mg QD for 9 consecutive days. A 200 mg BID dose level is expected to provide similar inhibition to a 400 mg QD dose. Although itraconazole reaches steady state within approximately 15 days, it has been established that QD administration of 200 mg itraconazole for 3 to 5 days allows maximum CYP3A inhibition sufficient to detect a DDI. […] As such, administration of itraconazole for at least 4 days is considered sufficient in DDI studies as a CYP3A4 and P-gp inhibitor. To maintain the level of inhibition, itraconazole was administered throughout PK sampling of etrumadenant (i.e., through Day 10 of Period 2). In addition, the itraconazole oral solution was administered under fasting conditions to maximize bioavailability.
Participants were housed on Day −1 of Period 1, at the time indicated by the clinical research unit (CRU), until after the 120-hour blood draw and completion of study procedures in Period 2. Safety was monitored throughout the study by repeated clinical and laboratory evaluations. In this study, there were no discontinued participants. All participants who received at least one dose of study drug (including participants who terminated the study early) were asked to return to the CRU approximately 14 days after the last dose for follow-up procedures, and to determine if any adverse event (AE) had occurred since the last study visit. All adverse events reported in the study were mild and resolved without treatment.

Sequence of P-gp (P08183 whole entry): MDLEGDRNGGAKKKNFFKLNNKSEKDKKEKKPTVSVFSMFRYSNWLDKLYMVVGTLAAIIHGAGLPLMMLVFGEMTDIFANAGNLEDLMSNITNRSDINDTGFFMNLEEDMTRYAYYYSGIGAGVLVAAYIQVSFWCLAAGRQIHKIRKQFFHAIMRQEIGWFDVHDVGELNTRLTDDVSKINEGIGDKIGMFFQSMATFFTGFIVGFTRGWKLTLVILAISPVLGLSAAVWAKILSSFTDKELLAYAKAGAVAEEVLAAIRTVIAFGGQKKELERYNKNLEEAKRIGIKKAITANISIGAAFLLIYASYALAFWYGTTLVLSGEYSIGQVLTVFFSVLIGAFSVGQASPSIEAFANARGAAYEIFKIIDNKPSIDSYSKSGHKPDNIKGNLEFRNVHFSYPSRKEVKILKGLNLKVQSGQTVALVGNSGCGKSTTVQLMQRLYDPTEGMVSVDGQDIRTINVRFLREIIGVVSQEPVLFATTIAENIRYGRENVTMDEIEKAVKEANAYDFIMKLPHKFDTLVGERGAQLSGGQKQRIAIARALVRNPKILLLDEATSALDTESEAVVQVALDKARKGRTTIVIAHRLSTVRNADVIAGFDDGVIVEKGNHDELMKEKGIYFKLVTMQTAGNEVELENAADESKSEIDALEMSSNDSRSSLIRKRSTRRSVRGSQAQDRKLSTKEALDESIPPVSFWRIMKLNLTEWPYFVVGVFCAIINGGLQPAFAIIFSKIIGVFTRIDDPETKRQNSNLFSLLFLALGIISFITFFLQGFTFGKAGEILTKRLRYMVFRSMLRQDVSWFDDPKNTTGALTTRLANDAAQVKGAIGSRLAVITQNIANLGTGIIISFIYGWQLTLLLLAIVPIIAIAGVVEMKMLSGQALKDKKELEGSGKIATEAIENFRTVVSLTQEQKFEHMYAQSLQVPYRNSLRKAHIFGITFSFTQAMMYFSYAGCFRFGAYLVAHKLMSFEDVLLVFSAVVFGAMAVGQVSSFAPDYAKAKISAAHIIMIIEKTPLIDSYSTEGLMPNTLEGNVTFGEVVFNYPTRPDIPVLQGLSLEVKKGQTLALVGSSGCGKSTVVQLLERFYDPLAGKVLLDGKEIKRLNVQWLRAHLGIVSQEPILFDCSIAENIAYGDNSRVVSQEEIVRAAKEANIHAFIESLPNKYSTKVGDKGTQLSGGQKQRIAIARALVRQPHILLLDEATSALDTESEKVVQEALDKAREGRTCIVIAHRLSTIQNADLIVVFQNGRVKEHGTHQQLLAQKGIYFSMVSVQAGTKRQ

Row | decrease in metabolite-to-parent ratio MP AUC0-24 [2] | decrease in metabolite-to-parent ratio MP Cmax [2] | Compound | increase of oral digoxin AUC [1]
1 | – | – | C[C@H]1O[C@@H](O[C@H]2[C@@H](O)C[C@H](O[C@H]3[C@@H](O)C[C@H](O[C@H]4CC[C@@]5(C)[C@H](CC[C@@H]6[C@@H]5C[C@@H](O)[C@]5(C)[C@@H](C7=CC(=O)OC7)CC[C@]65O)C4)O[C@@H]3C)O[C@@H]2C)C[C@H](O)[C@@H]1O [digoxin] | approximately 1.7 fold
2 | approximately 87% | ~90% | Cc1c(C#N)cccc1-c1cc(-c2c[nH]nn2)nc(N)n1 [N-dealkylated etrumadenant] | –
